Results reported in PubChem BioAssay AID651849 (The Scripps Research Institute Molecular Screening Center, 2012).

Target: Photoreceptor-specific nuclear receptor (Homo sapiens) (UniProt Q9Y5X4)
Test: agonist-induced NR2E3-NCOR dissociation – cell-based, luminescence, CHO-S two-hybrid, late stage, dose response (AID 651849)
Settings: CHO-S Gal4-NCOR/VP16-NR2E3 two-hybrid, luciferase

Photoreceptor-specific nuclear receptor (Homo sapiens), sequence (Q9Y5X4 whole entry, looked up): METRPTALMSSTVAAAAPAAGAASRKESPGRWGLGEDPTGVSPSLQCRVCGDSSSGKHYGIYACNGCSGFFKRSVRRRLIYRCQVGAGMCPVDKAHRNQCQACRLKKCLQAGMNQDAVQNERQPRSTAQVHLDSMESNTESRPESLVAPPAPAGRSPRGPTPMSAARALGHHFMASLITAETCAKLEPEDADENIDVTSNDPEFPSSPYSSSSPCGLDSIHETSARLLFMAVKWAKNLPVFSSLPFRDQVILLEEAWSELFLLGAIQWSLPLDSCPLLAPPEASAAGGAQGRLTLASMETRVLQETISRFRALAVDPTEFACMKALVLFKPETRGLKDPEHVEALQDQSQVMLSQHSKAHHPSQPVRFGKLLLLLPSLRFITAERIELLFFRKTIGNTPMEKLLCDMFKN

Row | SMILES | IC50 [µM]
1 | Cc1cccc(C(=O)N[C@H](C(=O)Nc2ncc(C)s2)C(C)C)c1 | 0.324
2 | Cc1cccc(OCCCC(=O)Nc2nc3ccccc3[nH]2)c1 | 5.3
3 | O=c1cc(N2CCN(c3cccc(Cl)c3)CC2)[nH]c(=O)n1C1CCCCC1 | 0.0727
4 | COc1cccc(N2CCN(c3nc(-c4ccccc4C)cc(=O)[nH]3)CC2)c1 | 0.428
5 | COc1ccc(S(=O)(=O)N2CCCCC2)cc1NC(=S)Nc1cccc(Cl)c1C | 1.5
6 | Cc1ccc(-c2nc(NC(=O)CSc3nnnn3-c3ccccc3)ns2)cc1 | 0.405
7 | O=c1c(Cl)c(N2CCN(c3ccc(F)cc3)CC2)cnn1C12CC3CC(CC(C3)C1)C2 | 3.33
8 | NC(=O)c1nn(-c2ccccc2)nc1NC(=O)CSc1nnnn1-c1ccc(Cl)cc1 | 1.57
9 | COc1ccc(S(=O)(=O)N2CCCCC2)cc1NC(=S)Nc1ccccc1 | 2.63
10 | O=C(O)CC1(CC(=O)Nc2cc(C(F)(F)F)cc(C(F)(F)F)c2)CCCCC1 | 4.02
11 | COc1ccc(NC2c3ccccc3C(=O)N2Cc2ccccc2Cl)cc1OC (stereo unspecified) | 4.84
12 | Cc1cnc(NC(=O)CCCc2nc3ccccc3s2)s1 | 0.945
13 | Cc1onc(-c2ccccc2Cl)c1C(=O)Nc1nc2c(s1)CCCC2 | 0.597
14 | O=C(CSc1nnnn1-c1ccc2c(c1)OCCO2)Nc1nc2c(s1)CCCC2 | 0.682
15 | Cc1ccc(NC(=O)CSc2nnnn2-c2ccc3c(c2)OCO3)cc1C | 0.566
16 | Cc1cnc(NC(=O)Cc2ccc(Br)cc2)s1 | 2.25
17 | COc1ccc2c(CC(=O)Nc3ncc(C)s3)coc2c1 | 1.92
18 | COc1cccc(NC(=O)CSc2nc3ncc(Br)cc3[nH]2)c1 | 3.57
19 | COc1cc2nc(CN3CC=C(c4ccccc4)CC3)[nH]c(=O)c2cc1OC | 0.393
20 | O=C(CSc1nnnn1-c1ccc(O)cc1)Nc1ccc(N2CCOCC2)c(Cl)c1 | 1.25
21 | Cc1cnc(NC(=O)C2CC(=O)N(c3ccc4c(c3)OCCO4)C2)s1 (stereo unspecified) | 7.06
22 | Cc1ccc(CN2CC(C(=O)Nc3ncc(C)s3)CC2=O)cc1 (stereo unspecified) | 0.516
23 | COc1ccc(OC)c(NC(=O)CSc2nnnn2-c2ccc3c(c2)OCO3)c1 | 0.301
24 | Cc1cc(C)cc(NC(=O)CCc2nc3sc4c(c3c(=O)[nH]2)CCCC4)c1 | 0.249
25 | Cc1ccnc(NC(=O)CSc2cc(=O)n(C)c3ccccc23)c1 | 1.43
26 | O=C(Nc1cccc(NC(=O)c2c(F)cccc2F)n1)c1c(F)cccc1F | 7.99
